The numbers were not newly measured in US20250002910A1, “TREATMENT OF COMPLEMENT-MEDIATED DISORDERS” (Apellis Pharmaceuticals, Inc., priority 2021, published 2025), which cites them from elsewhere.

The series deals with complement activation. The note with it: relative to compstatin amidated at the C-terminus; published data.

In the case of “Ac-ICV(1-Nal)QDWGAHRCT-COOH [AcV4(1-Nal)/H9A-OH]”, the Activity over compstatin is on record as 30x more. Turning to “Ac-ICV(2-IgI)QDWGAHRCT-CONH2 [Ac-V42lgl/H9A]”, the Activity over compstatin is 39x more. Take “Ac-ICV(2-IgI)QDWGAHRCT-COOH [Ac-V42lgl/H9A-OH]”: the Activity over compstatin is recorded as 37x more. For the substance “Ac-ICV(2-Nal)QDWGAHRCT-CONH2 [Ac-V4(2-Nal)/H9A]”, the Activity over compstatin is 99x more. Take “Ac-ICV(2-Nal)QDWGAHRCT-COOH [AcV4(2-Nal)/H9A-OH]”: the Activity over compstatin was 38x more. On to “Ac-ICV(Bpa)QDWGAHRCT-CONH2 [Ac-V4(Bpa)/H9A]”, for which the Activity over compstatin is 86x more. For “Ac-ICV(Bpa)QDWGAHRCT-COOH [Ac-V4(Bpa)/H9A-OH]”, the Activity over compstatin is listed as 49x more. “Ac-ICVDhtQDWGAHRCT-COOH [Ac-V4Dht/H9A-OH]”: the Activity over compstatin is recorded as 5x more. Consider Ac-ICVVQDWGHHRCT-CONH2 [Ac-compstatin], for which the Activity over compstatin is 3x more. As for “Ac-ICVWQD(5fW)GAHRCT-CONH2 [Ac-V4W/W7(5fW)/H9A]”, the Activity over compstatin is on record as 121x more.

On to “Ac-ICVWQDWGAHRCT-CONH2 (Ac-ICVWQDWGAHRCT-NH2; not fully specified (bridges); printed as Ac-ICVWQDWGAHRCT-CONH2; cysteine pairing not given here) [Ac-V4W/H9A]”, for which the Activity over compstatin is 45x more. For “Ac-ICVWQDWGAHRCdT-COOH [Ac-V4W/H9A/T13dT-OH]”, the Activity over compstatin was 55x more. Ac-ICVYQDWGAHRCT-CONH2 [Ac-V4Y/H9A]: the Activity over compstatin was 14x more.

Take “H-GICV(6fW)QD(6fW)GAHRCTN-COOH [+G/V4(6fW)/W7(6fW)H9A+N-OH]”: the Activity over compstatin was 126x more.
